Measured values reported in US20100048696A1, “AGRICULTURAL DISEASE CONTROL AGENT” (Idemitsu Kosan Co., Ltd., priority 2007, published 2010).
Read-outs that look alike come from different tables or passages of the source.

Legend:
Fusarium oxysporum = assay: Material disinfection test; format: cell-based; settings: 5 minutes
Botrytis cinerea = assay: Material disinfection test; format: cell-based; settings: 5 minutes
Rhizoctonia solani = assay: Material disinfection test; format: cell-based; settings: 5 minutes
Pyricularia oryzae = format: cell-based; settings: 5 minutes
Pythium ultimum = assay: Material disinfection test; format: cell-based; settings: 5 minutes
Erwinia chrysanthemi = assay: Material disinfection test; format: cell-based; settings: 5 minutes
Burkholderia glumae = assay: Material disinfection test; format: cell-based; settings: 5 minutes
Ralstonia solanacearum = format: cell-based; settings: 5 minutes
Burkholderia plantarii = assay: Material disinfection test; format: cell-based; settings: 5 minutes
[1] = test system: Erwinia carotovora var. cartovora; assay: Test using potatoes: blackleg pathogenesis after cutting with disinfected knife; format: in vivo, potatoes Norin No. 1
[2] = test system: Clavibacter michiganense subsp. Nebraskense (ATCC27822); assay: Basic test: cutting knife disinfection, ring rot pathogens; format: cell-based; settings: knife immersed 5 seconds
[3] = test system: bacteria pathogens and filamentous fungi pathogens; format: cell-based
[4] = test system: Erwinia carotovora var. cartovora; assay: Basic test: cutting knife disinfection, blackleg pathogens; format: cell-based; settings: knife immersed 5 seconds

O=C1O[C@H]([C@@H](O)CO)C(O)=C1O [Ascorbic acid]
average value of viable filamentous fungi counts on all materials examined (Fusarium oxysporum; 10 times solution sprayed): 3.2 × 10^5 cfu/ml
average value of viable filamentous fungi counts on all materials examined (Fusarium oxysporum; 50 times solution sprayed): 4.7 × 10^5 cfu/ml
average value of viable filamentous fungi counts on all materials examined (Botrytis cinerea; 10 times solution sprayed): 4.5 × 10^5 cfu/ml
average value of viable filamentous fungi counts on all materials examined (Botrytis cinerea; 50 times solution sprayed): 5.0 × 10^5 cfu/ml
average value of viable filamentous fungi counts on all materials examined (Rhizoctonia solani; 10 times solution sprayed): 1.3 × 10^5 cfu/ml
average value of viable filamentous fungi counts on all materials examined (Rhizoctonia solani; 50 times solution sprayed): 2.0 × 10^5 cfu/ml
average value of viable filamentous fungi counts on all materials examined (Pyricularia oryzae; 10 times solution sprayed): 4.2 × 10^4 cfu/ml
average value of viable filamentous fungi counts on all materials examined (Pyricularia oryzae; 50 times solution sprayed): 6.2 × 10^4 cfu/ml
average value of viable filamentous fungi counts on all materials examined (Pythium ultimum; 10 times solution sprayed): 2.3 × 10^4 cfu/ml
average value of viable filamentous fungi counts on all materials examined (Pythium ultimum; 50 times solution sprayed): 1.5 × 10^4 cfu/ml
Average value of viable bacteria counts on all materials examined (Erwinia chrysanthemi; 10 times solution sprayed): 1.0 × 10^8 cfu/ml
Average value of viable bacteria counts on all materials examined (Erwinia chrysanthemi; 50 times solution sprayed): 1.0 × 10^8 cfu/ml
Average value of viable bacteria counts on all materials examined (Burkholderia glumae; 10 times solution sprayed): 1.1 × 10^8 cfu/ml
Average value of viable bacteria counts on all materials examined (Burkholderia glumae; 50 times solution sprayed): 3.2 × 10^8 cfu/ml
Average value of viable bacteria counts on all materials examined (Ralstonia solanacearum; 10 times solution sprayed): 8.5 × 10^8 cfu/ml
Average value of viable bacteria counts on all materials examined (Ralstonia solanacearum; 50 times solution sprayed): 1.0 × 10^9 cfu/ml
Average value of viable bacteria counts on all materials examined (Burkholderia plantarii; 10 times solution sprayed): 1.6 × 10^7 cfu/ml
Average value of viable bacteria counts on all materials examined (Burkholderia plantarii; 50 times solution sprayed): 1.8 × 10^7 cfu/ml

O=C(O)CC(O)C(=O)O (centres unmarked) [Malic acid]
average value of viable filamentous fungi counts on all materials examined (Fusarium oxysporum; 10 times solution sprayed): 1.8 × 10^5 cfu/ml
average value of viable filamentous fungi counts on all materials examined (Fusarium oxysporum; 50 times solution sprayed): 4.5 × 10^5 cfu/ml
average value of viable filamentous fungi counts on all materials examined (Botrytis cinerea; 10 times solution sprayed): 3.7 × 10^5 cfu/ml
average value of viable filamentous fungi counts on all materials examined (Botrytis cinerea; 50 times solution sprayed): 2.9 × 10^5 cfu/ml
average value of viable filamentous fungi counts on all materials examined (Rhizoctonia solani; 10 times solution sprayed): 2.1 × 10^5 cfu/ml
average value of viable filamentous fungi counts on all materials examined (Rhizoctonia solani; 50 times solution sprayed): 1.8 × 10^5 cfu/ml
average value of viable filamentous fungi counts on all materials examined (Pyricularia oryzae; 10 times solution sprayed): 4.6 × 10^4 cfu/ml
average value of viable filamentous fungi counts on all materials examined (Pyricularia oryzae; 50 times solution sprayed): 5.0 × 10^4 cfu/ml
average value of viable filamentous fungi counts on all materials examined (Pythium ultimum; 10 times solution sprayed): 2.5 × 10^4 cfu/ml
average value of viable filamentous fungi counts on all materials examined (Pythium ultimum; 50 times solution sprayed): 4.3 × 10^4 cfu/ml
Average value of viable bacteria counts on all materials examined (Erwinia chrysanthemi; 10 times solution sprayed): 1.4 × 10^8 cfu/ml
Average value of viable bacteria counts on all materials examined (Erwinia chrysanthemi; 50 times solution sprayed): 1.2 × 10^8 cfu/ml
Average value of viable bacteria counts on all materials examined (Burkholderia glumae; 10 times solution sprayed): 3.6 × 10^8 cfu/ml
Average value of viable bacteria counts on all materials examined (Burkholderia glumae; 50 times solution sprayed): 5.2 × 10^8 cfu/ml
Average value of viable bacteria counts on all materials examined (Ralstonia solanacearum; 10 times solution sprayed): 9.5 × 10^8 cfu/ml
Average value of viable bacteria counts on all materials examined (Ralstonia solanacearum; 50 times solution sprayed): 7.8 × 10^8 cfu/ml
Average value of viable bacteria counts on all materials examined (Burkholderia plantarii; 10 times solution sprayed): 1.0 × 10^7 cfu/ml
Average value of viable bacteria counts on all materials examined (Burkholderia plantarii; 50 times solution sprayed): 3.2 × 10^7 cfu/ml

O=C1C=CC(=O)O1 [Maleic anhydride]
sterilization in test using potatoes (in words) ([1]; 5 to 10 times solution): complete sterilization
sterilization effect in test using potatoes (in words) ([1]; 50 times solution): high sterilization effect
sterilization of ring rot pathogens (in words) ([2]; 2 to 10 times solutions): complete sterilization
sterilization effect on ring rot pathogens (in words) ([2]; 25 to 50 times solutions): high sterilization effect
average value of viable filamentous fungi counts on all materials examined (Pyricularia oryzae; 2 times solution sprayed): 0 cfu/ml
average value of viable filamentous fungi counts on all materials examined (Pyricularia oryzae; 5 times solution sprayed): 0 cfu/ml
average value of viable filamentous fungi counts on all materials examined (Pyricularia oryzae; 25 times solution sprayed): 0 cfu/ml
average value of viable filamentous fungi counts on all materials examined (Pyricularia oryzae; 50 times solution sprayed): 0 cfu/ml
average value of viable filamentous fungi counts on all materials examined (Pyricularia oryzae; 100 times solution sprayed): 0 cfu/ml
average value of viable filamentous fungi counts on all materials examined (Pyricularia oryzae; 200 times solution sprayed): 32 cfu/ml
average value of viable filamentous fungi counts on all materials examined (Pyricularia oryzae; 500 times solution sprayed): 1.5 × 10^2 cfu/ml
sterilization in material disinfection test (in words) [3]: complete sterilization
sterilization of blackleg pathogens (in words) ([4]; 2 to 10 times solutions): complete sterilization
sterilization effect on blackleg pathogens (in words) ([4]; 25 to 50 times solutions): high sterilization effect
Average value of viable bacteria counts on all materials examined (Burkholderia glumae; 2 times solution sprayed): 0 cfu/ml
Average value of viable bacteria counts on all materials examined (Burkholderia glumae; 5 times solution sprayed): 0 cfu/ml
Average value of viable bacteria counts on all materials examined (Burkholderia glumae; 25 times solution sprayed): 0 cfu/ml
Average value of viable bacteria counts on all materials examined (Burkholderia glumae; 50 times solution sprayed): 0 cfu/ml
Average value of viable bacteria counts on all materials examined (Burkholderia glumae; 100 times solution sprayed): 0 cfu/ml
Average value of viable bacteria counts on all materials examined (Burkholderia glumae; 200 times solution sprayed): 69 cfu/ml
Average value of viable bacteria counts on all materials examined (Burkholderia glumae; 500 times solution sprayed): 2.0 × 10^2 cfu/ml
Average value of viable bacteria counts on all materials examined (Ralstonia solanacearum; 2 times solution sprayed): 0 cfu/ml
Average value of viable bacteria counts on all materials examined (Ralstonia solanacearum; 5 times solution sprayed): 0 cfu/ml
Average value of viable bacteria counts on all materials examined (Ralstonia solanacearum; 25 times solution sprayed): 0 cfu/ml
Average value of viable bacteria counts on all materials examined (Ralstonia solanacearum; 50 times solution sprayed): 0 cfu/ml
Average value of viable bacteria counts on all materials examined (Ralstonia solanacearum; 100 times solution sprayed): 0 cfu/ml
Average value of viable bacteria counts on all materials examined (Ralstonia solanacearum; 200 times solution sprayed): 4 cfu/ml
Average value of viable bacteria counts on all materials examined (Ralstonia solanacearum; 500 times solution sprayed): 58 cfu/ml
Average value of viable bacteria counts on all materials examined (Burkholderia plantarii; 2 times solution sprayed): 0 cfu/ml
Average value of viable bacteria counts on all materials examined (Burkholderia plantarii; 5 times solution sprayed): 0 cfu/ml
Average value of viable bacteria counts on all materials examined (Burkholderia plantarii; 25 times solution sprayed): 0 cfu/ml
Average value of viable bacteria counts on all materials examined (Burkholderia plantarii; 50 times solution sprayed): 0 cfu/ml
Average value of viable bacteria counts on all materials examined (Burkholderia plantarii; 100 times solution sprayed): 0 cfu/ml
Average value of viable bacteria counts on all materials examined (Burkholderia plantarii; 200 times solution sprayed): 7 cfu/ml
Average value of viable bacteria counts on all materials examined (Burkholderia plantarii; 500 times solution sprayed): 1.0 × 10^2 cfu/ml
